Source: patent US8663651B2, “T-140 peptide analogs having CXCR4 super-agonist activity for immunomodulation” (Biokine Therapeutics Ltd., priority 2006, dated 2014)
Square brackets hold non-standard residues; d marks the D form. * marks the point of attachment. Benzoyl(4-F) = O=C(c1ccc(F)cc1)*; Cit = NC(=O)NCCC[C@H](N)C(=O)O

What was measured:
Assay type in all cases: cell-based, human
PC3-CXCR4.5 cells = assay: MIP3α secretion by PC3-CXCR4.5 cells (CXCR4-overexpressing clone), assessed by ELISA; conditions: for induced MIP3α secretion after silencing of CXCR4 expression: CXCL12 500 ng/ml or 4F-benzoyl-TN14003 8 μM for additional 48 hours
Protocol: (§1) In this example, regulation of the chemokine MIP3α (macrophage inflammatory protein 3α) was examined. […] In FIG. 1B, PC3 (left panel) and PC3-CXCR4.5 (right panel) cells were stimulated with the indicated concentrations of CXCL12 for 48 hours and MIP3α secretion was assessed by ELISA. The results represent the average of triplicates±STDEV.
(§2) The effects of the CXCR4 antagonist AMD3100 and of 4F-benzoyl-TN14003 (4FB-TN14003), hitherto known as a CXCR4 antagonist, on MIP3α secretion were further tested. […] In FIG. 1C, CXCR4 signaling in PC3 (left panel) and PC3-CXCR4.5 (right panel) cells was inhibited with anti-CXCL12 antibodies (αCXCL12) and Pertussis toxin (PTX) treatments alone or in combination with CXCL12, as indicated. Secretion of MIP3α was assessed by ELISA. The results represent the average of triplicates±STDEV.
(§3) The Dicer-substrate siRNA duplexes of CXCR4 (NCBI accession number NM 003467): sense 5′-[…]-3′ (SEQ ID NO:78), antisense 5′ […]-3′ (SEQ ID NO:79) were purchased from IDT, Coralville, Iowa. The non-specific siRNA duplexes were used as a control. PC3-CXCR4.5 cells were transfected with 200 nmol/L siRNA in serum-free medium using Oligofectamine reagent (Invitrogen, Carlsbad, Calif., USA), according to the manufacturer's instructions. To determine the efficiency of CXCR4RNA interference, at 48 hours post-transfection, the cells were analyzed for CXCR4 expression on mRNA and cell-surface levels.
In FIG. 2C, control (gray) and CXCR4 (black) siRNA-transfected PC3-CXCR4.5 cells at 48 hours post-transfection were incubated with CXCL12 500 ng/ml and 4F-benzoyl-TN14003 8 μM (4FB-TN14003) for additional 48 hours. MIP3α secretion was assessed by ELISA. The results represent the average of triplicates±STDEV.

PC3 cells = assay: MIP3α secretion by PC3 cells, assessed by ELISA
Protocol: as §1, §2

NB4 = assay: MIP3α secretion by NB4 cells, ELISA; conditions: following stimulation
Protocol: (§4) The expression of MIP3α in a range of carcinoma cell lines and normal epithelial cells was tested by ELISA. […] Bone marrow endothelial cells, BMEC, glioblastoma cells U87, breast carcinoma cells MDA231, also were negative for MIP3α secretion. […] In addition, MIP3α was also secreted by normal keratinocytes (FIG. 4D) and primary blasts from peripheral blood of patients with AML (FIG. 4C). In FIG. 4, acute promyelocytic leukemia cell lines NB4 (FIG. 4A) and HL60 (FIG. 4B), primary peripheral blasts from the patient with acute myelocytic leukemia (FIG. 4C) and normal keratinocytes (FIG. 4D) were stimulated with the indicated concentration of CXCL12 for 48 hours. The secretion of MIP3α was assayed by ELISA. The results of experiments with NB4, HL60 and keratinocytes represent the average of triplicates±STDEV. […] Secretion of MIP3α was assessed by ELISA. […] The results represent the average of triplicates±STDEV.

normal keratinocytes = assay: MIP3α secretion by normal keratinocytes, ELISA; conditions: following stimulation
Protocol: as §4

HL-60 = assay: MIP3α secretion by HL-60 cells, ELISA; conditions: following stimulation
Protocol: as §4

CXCR4 = CXCR4 silencing by siRNA in PC3-CXCR4.5 cells (RT-PCR and FACS); conditions: 200 nmol/L siRNA, 48 hours post-transfection
Protocol: as §3
In FIG. 2A, PC3-CXCR4.5 cells 48 hours following the transfection with CXCR4-specific siRNA were stained for the control and CXCR4 antibodies and evaluated by FACS. Left panel, non-transfected cells; middle panel, cells transfected with a control (non-specific) siRNA; right panel, cells transfected with a siRNA directed to CXCR4 (CXCR4 siRNA). Cells were stained for the control (IgG2a-PE, full histograms) and CXCR4 antibodies (IgG2a-12G5, empty histograms).
In FIG. 2B, RT-PCR analysis of CXCR4 of the siRNA-transfected PC3-CXCR4.5 cells 48 hours following the transfection is presented. […] Gene expression was determined using primers specific to CXCR4, or to the housekeeping gene β-actin as a control. […]

[1] = CXCR4 siRNA-transfected PC3-CXCR4.5 cells

c1cc(CN2CCCNCCNCCCNCC2)ccc1CN1CCCNCCNCCCNCC1 [AMD3100, reference compound]
induction of MIP3α secretion in an agonist manner (PC3-CXCR4.5 cells; PC3-CXCR4.5 cells): but not AMD3100 induced

CXCL12: chemokine, CXCR4's only natural ligand
MIP3α secretion (PC3 cells; PC3 cells stimulated with increasing doses of CXCL12 for 48 hours): increased the secretion of MIP3α
extent of MIP3α secretion induction compared with 4F-benzoyl-TN14003 (PC3-CXCR4.5 cells; CXCR4-expressing cell lines (general statement)): to a lesser extent than 4F-benzoyl-TN14003
induced MIP3α secretion after silencing of CXCR4 expression (PC3-CXCR4.5 cells; [1]): inhibited
MIP3α secretion (PC3-CXCR4.5 cells; PC3-CXCR4.5 cells stimulated with increasing doses of CXCL12 for 48 hours): increased the secretion of MIP3α
MIP3α secretion (NB4): increased
MIP3α secretion (normal keratinocytes): increased
MIP3α secretion (HL-60): increased

4F-benzoyl-Arg-Arg-Nal-Cys-Tyr-Cit-Lys-DLys-Pro-Tyr-Arg-Cit-Cys-Arg-NH2 ({Benzoyl(4-F)}-RR[Nal]CY[Cit]K[dK]PYR[Cit]CR-NH2; cysteine pairing not given here) [4F-benzoyl-TN14003]
induction of MIP3α secretion in an agonist manner (PC3 cells; PC3 cells): induced in both cell lines MIP3α secretion in an agonist manner
induced MIP3α secretion after silencing of CXCR4 expression (PC3-CXCR4.5 cells; [1]): inhibited
induction of MIP3α secretion in an agonist manner (PC3-CXCR4.5 cells; PC3-CXCR4.5 cells): induced in both cell lines MIP3α secretion in an agonist manner
mode of action on CXCR4 (PC3-CXCR4.5 cells; concluded from CXCR4-dependent MIP3α secretion in PC3-CXCR4.5 cells): super agonist for CXCR4
MIP3α secretion (NB4): increased
MIP3α secretion (normal keratinocytes): increased
MIP3α secretion (HL-60): increased

siRNA specific for CXCR4: Dicer-substrate siRNA duplexes of CXCR4 (SEQ ID NO:78 sense, SEQ ID NO:79 antisense), purchased from IDT (sense UAAAAUCUUCCUGCCCACCAUCUAC; antisense GUAGAUGGUGGGCAGGAAGAUUUUAUU; Dicer-substrate duplex, purchased, chemistry not given here) [reference compound]
spontaneous MIP3α secretion after silencing of CXCR4 expression (PC3-CXCR4.5 cells; [1]): inhibited the spontaneous
CXCR4 mRNA and cell surface expression (CXCR4): reduced CXCR4 mRNA and cell surface expression

Pertussis toxin [reference compound]
MIP3α secretion (PC3 cells; PC3 cells, treatment alone or in combination with CXCL12): effectively inhibited the secretion of MIP3α
MIP3α secretion (PC3-CXCR4.5 cells; PC3-CXCR4.5 cells, in combination with CXCL12): did not demonstrate an inhibitory effect on the level of MIP3α
MIP3α secretion (PC3-CXCR4.5 cells; PC3-CXCR4.5 cells, treatment alone): secretion of MIP3α was decreased
